Test results reported in patent publication US20260356856A1, “KRAS G12S AND G12C INHIBITORS” (MIRATI THERAPEUTICS, INC., priority 2023, published 2026).

Key:
[1] = biological target: T1, KRas-mediated phosphorylation of ERK in A549 cells (Homo sapiens, UniProt P01116, G12S); assay: Inhibition of KRas-mediated phosphorylation of ERK (HTRF), A549 cells; format: cell-based; conditions: HTRF pERK, 3 h incubation
T1 construct: pERK HTRF read-out

[2] = biological target: T2, KRas-mediated phosphorylation of ERK in MKN1 cells (Homo sapiens, UniProt P01116); assay: Inhibition of KRas-mediated phosphorylation of ERK (HTRF), MKN1 cells; format: cell-based; conditions: MKN1 cells (KRas WT); HTRF pERK; 3 h incubation
T2 construct: pERK HTRF read-out
Description: Inhibition of KRas Phosphorylation of ERK (HTRF) by Exemplary Compounds of Formula (Ia) or (Ib)
Cisbio HTRF Advanced pERK Assay Catalog #64AERPEH • Cells: MKN1, PSN1 • Procedure: • 1. Day 1: Seed 6,000 cells/well −25 μl/well in 384-well white solid bottom plate; RPM1_10% FBS. Incubate overnight at 37 °C/5% CO2. • 2.

[3] = biological target: T3, KRas-mediated phosphorylation of ERK in H358 cells (Homo sapiens, UniProt P01116, G12C); assay: Inhibition of KRas-mediated phosphorylation of ERK (HTRF), H358 cells; format: cell-based; conditions: HTRF pERK, 3 h incubation
T3 construct: pERK HTRF read-out

KRas WT = biological target: T4, KRas WT (Homo sapiens, UniProt P01116); assay: KRas binding assay, TR-FRET displacement of Cy5 labelled tracer; conditions: 60-minute incubation at room temperature, 1% DMSO, pH 7.5
T4 construct: Biotinylated KRas (corresponding to amino acids 1-169, produced at Accelegan Inc.); biotin (biotinylated); purchased Accelegan Inc
How it was run: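 Biotinylated KRas (residues 1-169) was incubated with tracer, terbium-streptavidin and compound at 1% DMSO final in 50 mM HEPES pH 7.5 containing 5 mM MgCl2, 0.005% Tween-20 and 1 mM DTT. The plate was read after 60 min at room temperature, and percent-of-control data were fit to a 4-parameter IC50 equation.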

KRas G12C = biological target: T5, KRas G12C (Homo sapiens, UniProt P01116, G12C); assay: as above; conditions: 60-minute incubation at room temperature, 1% DMSO, pH 7.5
T5 construct: Biotinylated KRas (corresponding to amino acids 1-169, produced at Accelegan Inc.); biotin (biotinylated); purchased Accelegan Inc
How it was run: (§1)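 Compound competes with tracer for biotin-labelled KRas (amino acids 1-169) bound to terbium-streptavidin. Incubation runs 60 minutes at room temperature, final DMSO 1%. IC50 values derive from a 4-parameter fit.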

KRas G12S = biological target: T6, KRas G12S (Homo sapiens, UniProt P01116, G12S); assay: as above; conditions: 60-minute incubation at room temperature, 1% DMSO, pH 7.5
T6 construct: Biotinylated KRas (corresponding to amino acids 1-169, produced at Accelegan Inc.); biotin (biotinylated); purchased Accelegan Inc
How it was run: as §1

T4 sequence (P01116 1-169 isoform P01116-2): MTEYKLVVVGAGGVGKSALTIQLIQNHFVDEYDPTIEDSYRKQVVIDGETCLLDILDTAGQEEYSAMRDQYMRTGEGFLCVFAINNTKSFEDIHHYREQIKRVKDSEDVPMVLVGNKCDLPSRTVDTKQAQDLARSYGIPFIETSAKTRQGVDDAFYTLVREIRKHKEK
T6 sequence (P01116 1-169 isoform P01116-2 G12S): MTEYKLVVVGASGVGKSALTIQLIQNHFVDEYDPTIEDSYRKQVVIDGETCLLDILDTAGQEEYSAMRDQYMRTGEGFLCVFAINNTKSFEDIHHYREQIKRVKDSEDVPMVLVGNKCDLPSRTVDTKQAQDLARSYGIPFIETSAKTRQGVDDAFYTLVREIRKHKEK
T2 sequence (P01116 1-188 isoform P01116-2): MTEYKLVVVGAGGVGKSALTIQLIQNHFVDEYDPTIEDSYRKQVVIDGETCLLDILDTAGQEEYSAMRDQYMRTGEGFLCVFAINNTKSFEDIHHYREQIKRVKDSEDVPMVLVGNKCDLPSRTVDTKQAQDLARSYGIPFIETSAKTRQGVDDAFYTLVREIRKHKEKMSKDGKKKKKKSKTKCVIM
T1 sequence (P01116 1-188 isoform P01116-2 G12S): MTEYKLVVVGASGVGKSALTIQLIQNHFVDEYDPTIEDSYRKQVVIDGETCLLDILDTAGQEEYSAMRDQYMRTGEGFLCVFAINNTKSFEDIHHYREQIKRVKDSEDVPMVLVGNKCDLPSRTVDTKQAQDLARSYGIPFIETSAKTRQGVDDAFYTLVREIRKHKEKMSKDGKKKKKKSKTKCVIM
T3 sequence (P01116 1-188 isoform P01116-2 G12C): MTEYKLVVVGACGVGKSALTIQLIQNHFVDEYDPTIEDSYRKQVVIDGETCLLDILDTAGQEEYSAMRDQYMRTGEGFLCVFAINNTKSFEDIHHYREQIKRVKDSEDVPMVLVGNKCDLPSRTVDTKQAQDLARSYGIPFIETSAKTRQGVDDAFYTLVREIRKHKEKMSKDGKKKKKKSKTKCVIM
T5 sequence (P01116 1-169 isoform P01116-2 G12C): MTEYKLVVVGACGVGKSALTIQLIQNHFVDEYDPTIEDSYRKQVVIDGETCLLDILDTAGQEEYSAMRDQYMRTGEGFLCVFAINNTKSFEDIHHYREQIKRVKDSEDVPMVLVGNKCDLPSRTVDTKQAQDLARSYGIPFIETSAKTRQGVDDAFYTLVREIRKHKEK

SMILES	IC50 [1] [nM]	IC50 [2] [nM]	IC50 [3] [nM]	IC50 (KRas WT) [nM]	IC50 (KRas G12C) [nM]	IC50 (KRas G12S) [nM]
CCc1c(F)ccc2cc(O)cc(N3CCc4c(nc(OC[C@@]56CCCN5C[C@H](F)C6)nc4N4CCC(C(=O)n5ccc(C)n5)CC4)C3)c12 [Example 146, (1-(7-(8-ethyl-7-fluoro-3-hydroxynaphthalen-1-yl)-2-(((2R,7aS)-2-fluorotetrahydro-1H-pyrrolizin-7a(5H)-yl)methoxy)-5,6,7,8-tetrahydropyrido[3,4-d]pyrimidin-4-yl)piperidin-4-yl)(3-methyl-1H-pyrazol-1-yl)methanone]	> 10000	2530	3830	412	676	477
CCc1c(F)ccc2cc(O)cc(-c3ncc4c(N5CCN(C(=O)n6ccnc6)CC5)nc(OC[C@@]56CCCN5C[C@H](F)C6)nc4c3F)c12 [Example 150, (4-(7-(8-ethyl-7-fluoro-3-hydroxynaphthalen-1-yl)-8-fluoro-2-(((2R,7aS)-2-fluorotetrahydro-1H-pyrrolizin-7a(5H)-yl)methoxy)pyrido[4,3-d]pyrimidin-4-yl)piperazin-1-yl)(1H-imidazol-1-yl)methanone]	1580	40	39	2	5	3
CCc1c(F)ccc2cc(O)cc(-c3ncc4c(N5CCN(C(=O)n6ccnn6)CC5)nc(OC[C@@]56CCCN5C[C@H](F)C6)nc4c3F)c12 [Example 151, (4-(7-(8-ethyl-7-fluoro-3-hydroxynaphthalen-1-yl)-8-fluoro-2-(((2R,7aS)-2-fluorotetrahydro-1H-pyrrolizin-7a(5H)-yl)methoxy)pyrido[4,3-d]pyrimidin-4-yl)piperazin-1-yl)(1H-1,2,3-triazol-1-yl)methanone]	1210	72	14	9	12	18
CCc1c(F)ccc2cc(O)cc(-c3ncc4c(N5CCC(C(=O)N6CCCCC6=O)CC5)nc(OC[C@@]56CCCN5C[C@H](F)C6)nc4c3F)c12 [Example 154, 1-(1-(7-(8-ethyl-7-fluoro-3-hydroxynaphthalen-1-yl)-8-fluoro-2-(((2R,7aS)-2-fluorotetrahydro-1H-pyrrolizin-7a(5H)-yl)methoxy)pyrido[4,3-d]pyrimidin-4-yl)piperidine-4-carbonyl)piperidin-2-one]	6280	2870	7230	131	338	257
CCc1c(F)ccc2cc(O)cc(-c3ncc4c(N5CC[C@@H]6[C@H](C5)[C@@H]6C(=O)n5ccc(C)n5)nc(OC[C@@]56CCCN5C[C@H](F)C6)nc4c3F)c12 [Example 157, ((1S,6R,7R)-3-(7-(8-ethyl-7-fluoro-3-hydroxynaphthalen-1-yl)-8-fluoro-2-(((2R,7aS)-2-fluorotetrahydro-1H-pyrrolizin-7a(5H)-yl)methoxy)pyrido[4,3-d]pyrimidin-4-yl)-3-azabicyclo[4.1.0]heptan-7-yl)(3-methyl-1H-pyrazol-1-yl)methanone]	7590	955	2110	32	84	122
CCc1c(F)ccc2cc(O)cc(-c3ncc4c(N5C[C@H]6C[C@H](C(=O)n7ccc(C)n7)[C@H]6C5)nc(OC[C@@]56CCCN5C[C@H](F)C6)nc4c3F)c12 [Example 161, ((1S,5S,6S)-3-(7-(8-ethyl-7-fluoro-3-hydroxynaphthalen-1-yl)-8-fluoro-2-(((2R,7aS)-2-fluorotetrahydro-1H-pyrrolizin-7a(5H)-yl)methoxy)pyrido[4,3-d]pyrimidin-4-yl)-3-azabicyclo[3.2.0]heptan-6-yl)(3-methyl-1H-pyrazol-1-yl)methanone]	717	7280	> 10000	282	86	185

These reach a lower IC50 [1]. Values come first.

IC50 [1] [nM]	IC50 [2] [nM]	IC50 [3] [nM]	IC50 (KRas WT) [nM]	IC50 (KRas G12C) [nM]	IC50 (KRas G12S) [nM]	SMILES
10	363	26	11	< 2	< 2	Cc1ccn(C(=O)CCCN(C)c2nc(OC[C@@]34CCCN3C[C@H](F)C4)nc3c(F)c(-c4ccc(F)c5sc(N)c(C#N)c45)c(Cl)cc23)n1 [Example 141, 2-amino-4-(6-chloro-8-fluoro-2-(((2R,7aS)-2-fluorotetrahydro-1H-pyrrolizin-7a(5H)-yl)methoxy)-4-(methyl (4-(3-methyl-1H-pyrazol-1-yl)-4-oxobutyl)amino)quinazolin-7-yl)-7-fluorobenzo[b]thiophene-3-carbonitrile]
7	531	8	10	< 2	< 2	Cc1ccn(C(=O)CCCNc2nc(OC[C@@]34CCCN3C[C@H](F)C4)nc3c(F)c(-c4ccc(F)c5sc(N)c(C#N)c45)c(Cl)cc23)n1 [Example 142, 2-amino-4-(6-chloro-8-fluoro-2-(((2R,7aS)-2-fluorotetrahydro-1H-pyrrolizin-7a(5H)-yl)methoxy)-4-((4-(3-methyl-1H-pyrazol-1-yl)-4-oxobutyl)amino)quinazolin-7-yl)-7-fluorobenzo[b]thiophene-3-carbonitrile]
137	4010	2810	331	237	27	CCc1c(F)ccc2cc(O)cc(N3CCc4c(nc(OC[C@@]56CCCN5C[C@H](F)C6)nc4N4CCCC(C(=O)n5ccc(C)n5)CC4)C3)c12 (stereo partly drawn) [Example 145, (1-(7-(8-ethyl-7-fluoro-3-hydroxynaphthalen-1-yl)-2-(((2R,7aS)-2-fluorotetrahydro-1H-pyrrolizin-7a(5H)-yl)methoxy)-5,6,7,8-tetrahydropyrido[3,4-d]pyrimidin-4-yl)azepan-4-yl)(3-methyl-1H-pyrazol-1-yl)methanone]
445	671	2530	140	204	135	CCc1c(F)ccc2cc(O)cc(-c3ncc4c(N5CCC(C(=O)N(C)C(C)=O)CC5)nc(OC[C@@]56CCCN5C[C@H](F)C6)nc4c3F)c12 [Example 155, N-acetyl-1-(7-(8-ethyl-7-fluoro-3-hydroxynaphthalen-1-yl)-8-fluoro-2-(((2R,7aS)-2-fluorotetrahydro-1H-pyrrolizin-7a(5H)-yl)methoxy)pyrido[4,3-d]pyrimidin-4-yl)-N-methylpiperidine-4-carboxamide]
6	57	108	15	6	4	CCc1c(F)ccc2cc(O)cc(-c3ncc4c(NC[C@H]5C[C@@H]5C(=O)n5ccc(C)n5)nc(OC[C@@]56CCCN5C[C@H](F)C6)nc4c3F)c12 [Example 159, ((1S,2S)-2-(((7-(8-ethyl-7-fluoro-3-hydroxynaphthalen-1-yl)-8-fluoro-2-(((2R,7aS)-2-fluorotetrahydro-1H-pyrrolizin-7a(5H)-yl)methoxy)pyrido[4,3-d]pyrimidin-4-yl)amino)methyl)cyclopropyl)(3-methyl-1H-pyrazol-1-yl)methanone]
